The text below walks through data of patent US10308639B2, “Phosphatidylinositol 3-kinase inhibitors” (Gilead Sciences, Inc., priority 2014, dated 2019).

For one experiment, the target named is T1, PI3Kδ (Homo sapiens, UniProt O00329).
T1 construct: made in house
T1 sequence (O00329 whole entry): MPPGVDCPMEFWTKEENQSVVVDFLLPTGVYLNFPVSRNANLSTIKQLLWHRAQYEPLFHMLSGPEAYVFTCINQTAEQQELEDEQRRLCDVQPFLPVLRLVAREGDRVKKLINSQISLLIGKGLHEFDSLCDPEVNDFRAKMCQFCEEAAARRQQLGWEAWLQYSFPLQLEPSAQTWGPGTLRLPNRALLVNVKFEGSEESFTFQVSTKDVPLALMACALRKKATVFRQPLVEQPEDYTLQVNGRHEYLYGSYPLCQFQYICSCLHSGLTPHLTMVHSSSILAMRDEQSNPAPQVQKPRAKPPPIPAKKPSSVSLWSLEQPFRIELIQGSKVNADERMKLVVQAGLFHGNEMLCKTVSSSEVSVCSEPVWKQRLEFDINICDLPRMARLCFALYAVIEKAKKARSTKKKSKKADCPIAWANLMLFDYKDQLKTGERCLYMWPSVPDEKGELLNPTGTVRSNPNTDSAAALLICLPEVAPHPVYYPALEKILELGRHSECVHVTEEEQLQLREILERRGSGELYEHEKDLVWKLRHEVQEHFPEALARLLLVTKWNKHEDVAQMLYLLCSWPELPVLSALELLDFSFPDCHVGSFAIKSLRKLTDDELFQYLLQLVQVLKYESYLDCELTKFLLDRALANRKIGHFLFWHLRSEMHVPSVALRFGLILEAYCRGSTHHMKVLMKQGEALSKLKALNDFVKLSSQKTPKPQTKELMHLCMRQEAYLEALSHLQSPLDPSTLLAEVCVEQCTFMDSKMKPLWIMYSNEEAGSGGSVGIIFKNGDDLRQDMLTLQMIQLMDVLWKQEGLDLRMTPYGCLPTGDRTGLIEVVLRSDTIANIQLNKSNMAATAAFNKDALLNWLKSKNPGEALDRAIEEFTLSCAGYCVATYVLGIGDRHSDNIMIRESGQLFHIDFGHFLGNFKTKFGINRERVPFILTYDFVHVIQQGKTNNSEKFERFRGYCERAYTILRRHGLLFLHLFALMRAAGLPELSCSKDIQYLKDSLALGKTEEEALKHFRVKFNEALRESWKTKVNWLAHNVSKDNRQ
T1 sequence (P27986 whole entry partner): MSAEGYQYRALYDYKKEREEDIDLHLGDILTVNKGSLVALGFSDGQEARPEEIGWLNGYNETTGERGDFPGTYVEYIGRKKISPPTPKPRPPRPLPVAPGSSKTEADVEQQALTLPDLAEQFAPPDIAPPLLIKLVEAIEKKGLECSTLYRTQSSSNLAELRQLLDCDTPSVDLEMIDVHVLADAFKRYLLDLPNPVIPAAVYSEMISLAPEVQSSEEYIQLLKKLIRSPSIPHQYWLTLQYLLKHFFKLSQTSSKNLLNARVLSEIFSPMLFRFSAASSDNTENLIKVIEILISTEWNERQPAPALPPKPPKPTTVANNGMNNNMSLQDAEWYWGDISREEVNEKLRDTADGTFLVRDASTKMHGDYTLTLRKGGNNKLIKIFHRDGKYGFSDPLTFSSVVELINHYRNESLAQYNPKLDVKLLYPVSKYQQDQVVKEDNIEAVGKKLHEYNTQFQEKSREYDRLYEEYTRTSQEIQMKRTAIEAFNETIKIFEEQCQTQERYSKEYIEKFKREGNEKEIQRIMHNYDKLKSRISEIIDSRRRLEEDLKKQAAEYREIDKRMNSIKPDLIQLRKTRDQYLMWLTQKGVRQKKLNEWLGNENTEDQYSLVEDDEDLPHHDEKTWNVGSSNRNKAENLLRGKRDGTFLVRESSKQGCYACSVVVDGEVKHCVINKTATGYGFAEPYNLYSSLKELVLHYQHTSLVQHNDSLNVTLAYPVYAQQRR
The experiment is described as follows: TR-FRET enzymatic activity assay, PI3Kδ. Type of experiment: biochemical. Particulars: Table 2a; same assay.
Take `C[C@H](Nc1nc(N)nc(C(F)F)c1C#N)c1nc2c(F)cc(F)cc2c(=O)n1-c1cc[nH]n1` [Compound 187, (S)-2-amino-4-((1-(6,8-difluoro-4-oxo-3-(1H-pyrazol-3-yl)-3,4-dihydroquinazolin-2-yl)ethyl)amino)-6-(difluoromethyl)pyrimidine-5-carbonitrile]: half-maximal inhibition (IC50) was put at 0.006 µM.

Take `C[C@H](Nc1nc(N)nc(C(F)F)c1Cl)c1nc2cc(F)cc(F)c2c(=O)n1-c1cc[nH]n1` [Compound 233, (S)-2-(1-((2-amino-5-chloro-6-(difluoromethyl)pyrimidin-4-yl)amino)ethyl)-5,7-difluoro-3-(1H-pyrazol-3-yl)quinazolin-4(3H)-one]: the IC50 is 10 µM.

In a further experiment the target is T2, PI3Kγ (Homo sapiens, UniProt P48736).
T2 construct: made in house
T2 sequence (P48736 whole entry): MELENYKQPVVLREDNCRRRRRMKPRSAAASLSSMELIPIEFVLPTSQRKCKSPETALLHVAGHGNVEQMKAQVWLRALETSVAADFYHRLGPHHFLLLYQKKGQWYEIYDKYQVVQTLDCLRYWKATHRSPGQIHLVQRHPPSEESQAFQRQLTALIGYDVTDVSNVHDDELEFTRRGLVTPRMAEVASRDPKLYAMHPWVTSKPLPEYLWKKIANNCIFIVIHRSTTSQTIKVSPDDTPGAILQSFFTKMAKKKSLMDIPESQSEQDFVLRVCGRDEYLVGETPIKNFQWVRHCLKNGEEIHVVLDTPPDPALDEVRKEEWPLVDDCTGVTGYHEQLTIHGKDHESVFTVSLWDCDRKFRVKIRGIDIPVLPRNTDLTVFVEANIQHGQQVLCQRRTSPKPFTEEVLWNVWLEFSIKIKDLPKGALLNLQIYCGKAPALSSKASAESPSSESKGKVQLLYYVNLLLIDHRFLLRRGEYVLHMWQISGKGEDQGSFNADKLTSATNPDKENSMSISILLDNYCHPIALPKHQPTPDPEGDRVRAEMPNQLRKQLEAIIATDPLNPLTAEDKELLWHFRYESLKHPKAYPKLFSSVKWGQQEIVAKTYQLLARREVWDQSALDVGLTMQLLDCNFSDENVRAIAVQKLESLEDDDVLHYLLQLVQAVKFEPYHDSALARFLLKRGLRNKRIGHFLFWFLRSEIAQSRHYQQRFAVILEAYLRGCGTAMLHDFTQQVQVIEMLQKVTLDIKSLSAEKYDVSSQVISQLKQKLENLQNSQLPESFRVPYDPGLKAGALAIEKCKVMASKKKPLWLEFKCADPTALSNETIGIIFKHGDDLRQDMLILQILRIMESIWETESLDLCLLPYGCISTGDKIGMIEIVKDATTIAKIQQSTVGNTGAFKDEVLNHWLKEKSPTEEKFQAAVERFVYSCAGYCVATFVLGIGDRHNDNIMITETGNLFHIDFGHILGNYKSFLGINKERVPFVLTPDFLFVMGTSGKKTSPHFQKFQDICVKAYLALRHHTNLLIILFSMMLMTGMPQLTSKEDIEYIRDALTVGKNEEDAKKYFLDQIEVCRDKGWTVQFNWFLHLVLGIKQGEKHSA
In words: TR-FRET enzymatic activity assay, PI3Kγ. The class given is biochemical.
Conditions: not given
As to the method: The compounds of formula (I) were characterized for their enzymatic activity against the PI3K isoforms. The activities were measured using a time-resolved fluorescence resonance energy transfer (TR-FRET) assay.
In the case of `C[C@H](Nc1nc(N)nc(N)c1Cl)c1nc2ccc(F)cc2c(=O)n1-c1cc[nH]n1` [Compound 111, (S)-2-(1-((2,6-diamino-5-chloropyrimidin-4-yl)amino)ethyl)-6-fluoro-3-(1H-pyrazol-3-yl)quinazolin-4(3h)-one], the IC50 was > 10 µM.

In the case of `C[C@H](Nc1nc(N)nc(N)c1Cl)c1nc2c(Cl)cc(F)cc2c(=O)n1-c1cc[nH]n1` [Compound 123, (S)-8-chloro-2-(1-((2,6-diamino-5-chloropyrimidin-4-yl)amino)ethyl)-6-fluoro-3-(1H-pyrazol-3-yl)quinazolin-4(3h)-one], the IC50 was > 10 µM.

For `C[C@H](Nc1nc(N)nc(N)c1Cl)c1nc2cccc(F)c2c(=O)n1-c1cc[nH]n1` [Compound 151, (S)-2-(1-((2,6-diamino-5-chloropyrimidin-4-yl)amino)ethyl)-5-fluoro-3-(1H-pyrazol-3-yl)quinazolin-4(3H)-one], the IC50 was > 10 µM.

For `C[C@H](Nc1nc(N)nc(N)c1Cl)c1nc2c(F)cccc2c(=O)n1-c1cc[nH]n1` [Compound 153, (S)-2-(1-((2,6-diamino-5-chloropyrimidin-4-yl)amino)ethyl)-8-fluoro-3-(1H-pyrazol-3-yl)quinazolin-4(3H)-one], the IC50 is > 10 µM.

Turning to `C[C@H](Nc1cc(N)nc(N)n1)c1nc2cccc(Cl)c2c(=O)n1-c1cc[nH]n1` [Compound 163, (S)-5-chloro-2-(1-((2,6-diaminopyrimidin-4-yl)amino)ethyl)-3-(1H-pyrazol-3-yl)quinazolin-4(3H)-one], the IC50 was > 10 µM.

As for `C[C@@H](Nc1nc(N)nc(N)c1Cl)c1nc2c(Cl)cc(F)cc2c(=O)n1-c1cc[nH]n1` [Compound 174, (R)-8-chloro-2-(1-((2,6-diamino-5-chloropyrimidin-4-yl)amino)ethyl)-6-fluoro-3-(1H-pyrazol-3-yl)quinazolin-4(3H)-one], the IC50 is > 10 µM.

The same experiment, now with this note: Table 2; TR-FRET, 2x Km ATP, 30 minutes at 25° C.; read-out: PI3Kγ IC50.
Turning to `C[C@H](Nc1ncnc(N)c1C#N)c1nc2cccc(Cl)c2c(=O)n1-c1cn[nH]c1` [Compound 2, (S)-4-amino-6-((1-(5-chloro-4-oxo-3-(1H-pyrazol-4-yl)-3,4-dihydroquinazolin-2-yl)ethyl)amino)pyrimidine-5-carbonitrile], the IC50 was found to be 0.99 µM.

As for `C[C@H](Nc1nc(N)nc(N)c1C#N)c1nc2cccc(Cl)c2c(=O)n1-c1cc[nH]n1` [Compound 16, (S)-2,4-diamino-6-((1-(5-chloro-4-oxo-3-(1H-pyrazoyl)-3,4-dihydroquinazolin-2-yl)ethyl)amino)pyrimidine-5-carbonitrile], the IC50 worked out at 0.051 µM.

On to `N#Cc1c(N)nc(N)nc1N[C@H](c1nc2cccc(Cl)c2c(=O)n1-c1cc[nH]n1)C1CC1` [Compound 18, (S)-2,4-diamino-6-(((5-chloro-4-oxo-3-(1H-pyrazol-3-yl)-3,4-dihydroquinazolin-2-yl)(cyclopropyl)methyl)amino)pyrimidine-5-carbonitrile], for which the IC50 came to 0.19 µM.

With `Nc1nc(N)c(Cl)c(N[C@H](c2nc3cccc(Cl)c3c(=O)n2-c2cc[nH]n2)C2CC2)n1` [Compound 20, (S)-5-chloro-2-(cyclopropyl((2,6-diamino-5-chloropyrimidin-4-yl)amino)methyl)-3-(1H-pyrazol-3-yl)quinazolin-4(3H)-one], the IC50 turned out to be 5.9 µM.

On to `C[C@H](Nc1ncnc(N)c1C#N)c1nc2cccc(Cl)c2c(=O)n1-c1cc[nH]n1` [Compound 22, (S)-4-amino-6-((1-(5-chloro-4-oxo-3-(1H-pyrazol-3-yl)-3,4-dihydroquinazolin-2-yl)ethyl)amino)pyrimidine-5-carbonitrile], for which the IC50 was found to be 0.99 µM.

In the case of `Cc1nc(N)nc(N[C@H](c2nc3cccc(Cl)c3c(=O)n2-c2cc[nH]n2)C2CC2)c1C#N` [Compound 28, (S)-2-amino-4-(((5-chloro-4-oxo-3-(1H-pyrazol-3-yl)-3,4-dihydroquinazolin-2-yl)(cyclopropyl)methyl)amino)-6-methylpyrimidine-5-carbonitrile], the half-inhibitory concentration (IC50) amounted to 0.27 µM.

In the case of `N#Cc1c(Cl)nc(N)nc1N[C@H](c1nc2cccc(Cl)c2c(=O)n1-c1cc[nH]n1)C1CC1` [Compound 63, (S)-2-amino-4-chloro-6-(((5-chloro-4-oxo-3-(1H-pyrazol-3-yl)-3,4-dihydroquinazolin-2-yl)(cyclopropyl)methyl)amino)pyrimidine-5-carbonitrile], the IC50 amounted to 1.3 µM.

`C[C@H](Nc1nc(N)nc(N)c1Cl)c1nc2cccc(Cl)c2c(=O)n1-c1cc[nH]n1` [Compound 64, (S)-5-chloro-2-(1-((2,6-diamino-5-chloropyrimidin-4-yl)amino)ethyl)-3-(1H-pyrazol-3-yl)quinazolin-4(3H)-one]: the IC50 came out at 1.2 µM.

Turning to `N#Cc1c(N)nc(N)nc1N[C@H](c1nc2c(Cl)cc(F)cc2c(=O)n1-c1cc[nH]n1)C1CC1` [Compound 125, (S)-2,4-diamino-6-(((8-chloro-6-fluoro-4-oxo-3-(1H-pyrazol-3-yl)-3,4-dihydroquinazolin-2-yl)(cyclopropyl)methyl)amino)pyrimidine-5-carbonitrile], the IC50 amounted to 0.63 µM.

Still in this experiment, the particulars now being: Table 2a; same assay; read-out: PI3Kγ IC50.
For the compound `Nc1nc(N)c(Cl)c(N[C@@H](c2nc3cccc(Cl)c3c(=O)n2-c2cc[nH]n2)C2CC2)n1` [Compound 160, (R)-5-chloro-2-(cyclopropyl((2,6-diamino-5-chloropyrimidin-4-yl)amino)methyl)-3-(1H-pyrazol-3-yl)quinazolin-4(3H)-one], the half-inhibitory concentration (IC50) was > 10 µM.

On to `C[C@H](Nc1nc(N)nc(N)c1Cl)c1nc2c(F)cc(F)cc2c(=O)n1-c1cc[nH]n1` [Compound 161, (S)-2-(1-((2,6-diamino-5-chloropyrimidin-4-yl)amino)ethyl)-6,8-difluoro-3-(1H-pyrazol-3-yl)quinazolin-4(3H)-one], for which the half-maximal inhibitory concentration (IC50) came to 4.4 µM.

With `C[C@H](Nc1nc(N)nc(C(F)(F)F)c1C#N)c1nc2cccc(Cl)c2c(=O)n1-c1cc[nH]n1` [Compound 168, (S)-2-amino-4-((1-(5-chloro-4-oxo-3-(1H-pyrazol-3-yl)-3,4-dihydroquinazolin-2-yl)ethyl)amino)-6-(trifluoromethyl)pyrimidine-5-carbonitrile], the IC50 was > 10 µM.

`N#Cc1c(N[C@H](c2nc3cccc(Cl)c3c(=O)n2-c2cc[nH]n2)C2CC2)nc(N)nc1C(F)F` [Compound 171, (S)-2-amino-4-(((5-chloro-4-oxo-3-(1H-pyrazol-3-yl)-3,4-dihydroquinazolin-2-yl)(cyclopropyl)methyl)amino)-6-(difluoromethyl)pyrimidine-5-carbonitrile]: the IC50 is 1.1 µM.

In the case of `N#Cc1c(N[C@H](c2nc3c(Cl)cc(F)cc3c(=O)n2-c2cc[nH]n2)C2CC2)nc(N)nc1C(F)F` [Compound 172, (S)-2-amino-4-(((8-chloro-6-fluoro-4-oxo-3-(1H-pyrazol-3-yl)-3,4-dihydroquinazolin-2-yl)(cyclopropyl)methyl)amino)-6-(difluoromethyl)pyrimidine-5-carbonitrile], the half-inhibitory concentration (IC50) is 3.5 µM.

As for `C[C@H](Nc1nc(N)nc(C(F)F)c1C#N)c1nc2c(Cl)cc(F)cc2c(=O)n1-c1cc[nH]n1` [Compound 173, (S)-2-amino-4-((1-(8-chloro-6-fluoro-4-oxo-3-(1H-pyrazol-3-yl)-3,4-dihydroquinazolin-2-yl)ethyl)amino)-6-(difluoromethyl)pyrimidine-5-carbonitrile], the IC50 came out at 1.3 µM.

Consider `CC[C@H](Nc1nc(N)nc(C(F)F)c1C#N)c1nc2c(Cl)cc(F)cc2c(=O)n1-c1cc[nH]n1` [Compound 180, (S)-2-amino-4-((1-(8-chloro-6-fluoro-4-oxo-3-(1H-pyrazol-3-yl)-3,4-dihydroquinazolin-2-yl)propyl)amino)-6-(difluoromethyl)pyrimidine-5-carbonitrile], for which the IC50 came out at 7.8 µM.

As to `C[C@H](Nc1nc(N)nc(C(F)F)c1C#N)c1nc2c(F)cccc2c(=O)n1-c1cc[nH]n1` [Compound 186, (S)-2-amino-4-(difluoromethyl)-6-((1-(8-fluoro-4-oxo-3-(1H-pyrazol-3-yl)-3,4-dihydroquinazolin-2-yl)ethyl)amino)pyrimidine-5-carbonitrile], the IC50 worked out at 4.3 µM.

`C[C@H](Nc1nc(N)nc(C(F)F)c1C#N)c1nc2c(F)cc(F)cc2c(=O)n1-c1cc[nH]n1` [Compound 187, (S)-2-amino-4-((1-(6,8-difluoro-4-oxo-3-(1H-pyrazol-3-yl)-3,4-dihydroquinazolin-2-yl)ethyl)amino)-6-(difluoromethyl)pyrimidine-5-carbonitrile]: the half-inhibitory concentration (IC50) turned out to be 2.3 µM.

For `C[C@H](Nc1nc(N)nc(C(F)F)c1C#N)c1nc2cccc(F)c2c(=O)n1-c1cc[nH]n1` [Compound 191, (S)-2-amino-4-(difluoromethyl)-6-((1-(5-fluoro-4-oxo-3-(1H-pyrazol-3-yl)-3,4-dihydroquinazolin-2-yl)ethyl)amino)pyrimidine-5-carbonitrile], the IC50 was > 10 µM.

In the case of `C[C@H](Nc1nc(N)nc(C(F)F)c1C#N)c1nc2ccc(F)cc2c(=O)n1-c1cc[nH]n1` [Compound 193, (S)-2-amino-4-(difluoromethyl)-6-((1-(6-fluoro-4-oxo-3-(1H-pyrazol-3-yl)-3,4-dihydroquinazolin-2-yl)ethyl)amino)pyrimidine-5-carbonitrile], the IC50 was 8 µM.

Turning to `C[C@H](Nc1nc(N)nc(C(F)F)c1Cl)c1nc2cc(F)cc(F)c2c(=O)n1-c1cc[nH]n1` [Compound 233, (S)-2-(1-((2-amino-5-chloro-6-(difluoromethyl)pyrimidin-4-yl)amino)ethyl)-5,7-difluoro-3-(1H-pyrazol-3-yl)quinazolin-4(3H)-one], the IC50 was > 10 µM.

Regarding `CC[C@H](Nc1nc(N)nc(N)c1Cl)c1nc2c(Cl)cc(F)cc2c(=O)n1-c1cc[nH]n1` [Compound 257, (S)-8-chloro-2-(1-((2,6-diamino-5-chloropyrimidin-4-yl)amino)propyl)-6-fluoro-3-(1H-pyrazol-3-yl)quinazolin-4(3H)-one], the IC50 was > 10 µM.
